According to publication PMC9863607, “Combined Use of Antimicrobial Peptides with Antiseptics against Multidrug-Resistant Bacteria: Pros and Cons” (Pharmaceutics, 2023):

How the values were obtained:
E. coli ML-35p = experiment: Broth microdilution assay (MIC, planktonic bacteria); type: cell-based, Escherichia coli; conditions: antiseptics and surfactants; MHB, overnight 37 °C; median of 3–4 independent experiments; prontosan as polyhexanide
Method: (§1) In this regard the test plates were preincubated for 1 h at 37 °C with 0.1% bovine serum albumin (BSA) in distilled water before use. Bacteria were grown overnight at 37 °C with shaking in 2.1% Müller–Hinton broth (MHB), and then a small aliquot was transferred into the fresh portion of the same medium for another 2–3 h on the day of the experiment to provide us with the log phase bacterial suspension. Concentration of bacterial cells in suspension was evaluated based on absorbance at 620 nm and diluted down to 1 × 10^6 CFU/mL with MHB. Equal volumes of the prepared bacterial suspension in MHB and two-fold serial dilutions of the antimicrobials in 10 mM sodium phosphate (Na-P) buffer (pH 7.4) with 0.1% BSA were mixed and incubated overnight at 37 °C. The lowest concentration where no bacterial growth was observed the next day under visual examination was considered the minimal inhibitory concentration. The test was repeated at least three times, and the final MIC value was established as a median result. Each experiment was conducted in triplicates. Terasaki microplates (10 µL end volume, V-shaped bottom; Sarstedt, Nümbrecht, Germany) were used.

E. coli ESBL 521/17 = experiment: microbe, parasite or virus in culture; type: cell-based, Escherichia coli; conditions: antiseptics and surfactants; MHB, overnight 37 °C; median of 3–4 independent experiments; prontosan as polyhexanide
Method: as §1

A. baumannii 7226/16 = experiment: microbe, parasite or virus in culture; type: cell-based, Acinetobacter baumannii; conditions: antiseptics and surfactants; MHB, overnight 37 °C; median of 3–4 independent experiments; prontosan as polyhexanide
Method: as §1

P. aeruginosa MDR 522/17 = experiment: microbe, parasite or virus in culture; type: cell-based, Pseudomonas aeruginosa; conditions: antiseptics and surfactants; MHB, overnight 37 °C; median of 3–4 independent experiments; prontosan as polyhexanide
Method: as §1

[1] = system: K. pneumoniae ESBL 344/17; experiment: microbe, parasite or virus in culture; type: cell-based, Klebsiella pneumoniae; conditions: antiseptics and surfactants; MHB, overnight 37 °C; median of 3–4 independent experiments; prontosan as polyhexanide
Method: as §1

S. aureus 1399/17 = experiment: microbe, parasite or virus in culture; type: cell-based, Staphylococcus aureus; conditions: antiseptics and surfactants; MHB, overnight 37 °C; median of 3–4 independent experiments; prontosan as polyhexanide
Method: as §1

[2] = system: drug-resistant clinical isolates and E. coli ML-35p; experiment: Checkerboard titration, all tested bacteria together; type: cell-based; conditions: planktonic bacteria
Method: The mode of interaction of the test substances while applied in combinations was analyzed based on the calculation of the fractional (or combination) indices—the mathematical “embodiment” of the Loewe additivity paradigm that we used for the classification of combination effects in this study. As synergy is generally defined as a greater than additive effect, and antagonism as a lower than additive effect, the main problem is to establish a reference level for this additive effect. The Loewe approach uses the idea of the self-additivity of an individual substance; thus, the individual activity may be regarded as an additivity control. To identify additivity, synergy, or antagonism in Loewe terms, one should choose a fixed level of the studied effect and then compare the doses of individual substances required to reach this level, with the fractional doses of the substances in combination providing the same level of the effect.
In the case of activity testing of combinations toward planktonic bacteria, a checkerboard titration scheme was used to create an array of mixtures of the two substances (A and B) in various concentrations by diluting the first one two-fold row-by-row and the second one column-by-column. The left column and the bottom row contained the dilutions of only one substance (A or B) to control their individual activity levels in every experiment. […]

bacteria = conditions: cited from earlier work
Source text: Among surfactants, as was expected based on the literature data, sodium lauroyl sarcosinate was the most universally active toward bacteria. […] This is especially interesting in light of the fact that prontosan has an amidopopyl betaine in its composition alongside the poly ...

Structure (SMILES) | MIC (E. coli ML-35p) | MIC (E. coli ESBL 521/17) | MIC (A. baumannii 7226/16) | MIC (P. aeruginosa MDR 522/17) | MIC [1] | MIC (S. aureus 1399/17) | Type of interaction with AMPs, antibacterial effect of combinations [2] | MICs by disk-diffusion method (bacteria)
CCCCCCCCCCCC(=O)N(C)CC(=O)[O-].[Na+] [Sodium lauroyl sarcosinate] | 6250 µg/mL | 12,500 µg/mL | 25,000 µg/mL | 50,000 µg/mL | 12,500 µg/mL | >50,000 µg/mL | antagonistic interaction | 37.5 to 300 mg/mL
[Na+].[O-]Cl [Sodium hypochlorite] | 5000 µg/mL | 5000 µg/mL | 2500 µg/mL | 5000 µg/mL | 5000 µg/mL | 10,000 µg/mL | antagonistic interaction | –
